Experimental data taken from US20080118940A1, “PROTEASOMAL PEPTIDASE ACTIVITY AND THE USE THEREOF IN CLINICAL APPLICATIONS” (priority 2006, published 2008).

Key:
[1] = system: proteasome Ch-L activity in whole blood cell lysate from a normal individual; experiment: Dose response of Ch-L activity in whole blood lysate from a normal individual; format: biochemical, human; parameters: Activity: unit not given beside the values; settings: for % Inhibition / Activity: whole blood, normal individual
Procedure: (§1) Ch-L, Tr-L, and Cas-L activities in peripheral blood plasma from patients were measured as follows. Frozen patient plasma samples were processed by thawing at room temperature and mixed thoroughly. 45 μL of thawed plasma was pipetted into a microfuge tube (Tube 1), and 22.5 μL plasma was pipetted into another microfuge tube (Tube 2). 5 μL 10% SDS was pipetted into Tube 1, and 2.5 μL 10% tween 20 was pipetted into Tube 2. Each tube was mixed and incubated at room temperature for 15 minutes resulting in processed samples. All buffers, substrate stock solutions, controls, and microwell plates were equilibrated to room temperature. The proteasome control was placed on ice immediately after thawing. Substrate working solutions (1 mM) were made by adding 950 μL buffer A (1×HEPES/0.05% SDS) to 50 μL stock solution of Ch-L and Cas-L substrates (20 mM Suc-LLVY-AMC and 20 mM Z-LLE-AMC) and mixed. 950 μL buffer B (1×HEPES/0.05% Tween 20) was added to 50 μL stock solution of Tr-L substrate (20 mM BZ-VGR-AMC) and mixed. Working solutions were protected from light. A microwell plate (containing 12 columns of wells) was set-up according to a plate map as follows: 30 μL buffer A was pipetted into the wells of columns 1, 4, 7, and 10 (to measure Ch-L activity) and 3, 6, 9, and 12 (to measure Cas-L activity). 30 μL buffer B was pipetted into the wells of columns 2, 5, 8, and 11 (to measure Tr-L). 10 μL buffer A or B served as blank controls. 10 μL of processed samples were pipetted into duplicate wells for each substrate (i.e., 6 wells per processed plasma sample), to the designated wells according to the plate map. 10 μL of substrate was added to the designated wells according to the plate map. The final concentration of substrate was 200 μM. Cleavage of substrate was detected using the SPECTRAmax GEMINI EM instrument with SoftMax Pro data Collection software. The instrument incubation chamber temperature was set to 37° C. Fluorescence excitation and emission wavelengths were 380 nm and 460 nm, respectively. Samples were read at 1 minute intervals over 30 minutes. Green fluorescence was detected in columns 1, 4, 7, and 10, representing Ch-L activity; blue fluorescence was detected in columns 3, 6, 9, and 12, representing Cas-L activity; and yellow fluorescence was detected in columns 2, 5, 8, and 11, representing Tr-L activity.
A dose response study was conducted to determine the effect of concentration of YU-101 on Ch-L activity in a whole blood lysate from a normal individual. YU-101 (200 ng/μL) was serially diluted 1:2 in HEPES buffer to produce solutions having concentrations of 6.25, 12.5, 25, 50, and 100 ng/μL for dose response experiments. 70 μL of […] was combined with 1 μL inhibitor solution and incubated at room temperature for 15 minutes. Ch-L activity was determined as in Example 1.

[2] = system: proteasomal trypsin-like activity (Tr-L); experiment: Proteasome inhibitor effect on trypsin-like (Tr-L) peptidase activity, fluorogenic BZ-VGR-AMC assay; format: biochemical, human; settings: purified proteasome, plasma and white blood cell lysate; YU-101 0.4 μg/mL; substrate 200 μM
Procedure: (§2) Ch-L, Tr-L, and Cas-L activities in peripheral blood plasma from patients were measured as follows. Frozen patient plasma samples were processed by thawing at room temperature and mixed thoroughly. 45 μL of thawed plasma was pipetted into a microfuge tube (Tube 1), and 22.5 μL plasma was pipetted into another microfuge tube (Tube 2). 5 μL 10% SDS was pipetted into Tube 1, and 2.5 μL 10% tween 20 was pipetted into Tube 2. Each tube was mixed and incubated at room temperature for 15 minutes resulting in processed samples. All buffers, substrate stock solutions, controls, and microwell plates were equilibrated to room temperature. The proteasome control was placed on ice immediately after thawing. […] Cleavage of substrate was detected using the SPECTRAmax GEMINI EM instrument with SoftMax Pro data Collection software. […] Fluorescence excitation and emission wavelengths were 380 nm and 460 nm, respectively. Samples were read at 1 minute intervals over 30 minutes. Green fluorescence was detected in columns 1, 4, 7, and 10, representing Ch-L activity; blue fluorescence was detected in columns 3, 6, 9, and 12, representing Cas-L activity; and yellow fluorescence was detected in columns 2, 5, 8, and 11, representing Tr-L activity. […]

[3] = molecular target: T1, human pancreatic α-chymotrypsin (Homo sapiens, UniProt P17538); experiment: Specificity of proteasomal enzymatic assay: pancreatic chymotrypsin activity; format: biochemical; settings: Suc-LLVY-AMC
T1 construct: purchased Sigma C-8946; host or cells: isolated from human pancreas
Procedure: as §2

[4] = system: proteasomal chymotrypsin-like activity (Ch-L); experiment: Proteasome inhibitor effect on chymotrypsin-like (Ch-L) peptidase activity, fluorogenic Suc-LLVY-AMC assay; format: biochemical, human; settings: purified proteasome, plasma and white blood cell lysate; YU-101 0.4 μg/mL; substrate 200 μM
Procedure: as §2

[5] = molecular target: T2, proteasomal caspase-like activity (Cas-L) (Homo sapiens, UniProt P28072); experiment: Proteasome inhibitor effect on caspase-like (Cas-L) peptidase activity, fluorogenic Z-LLE-AMC assay; format: biochemical; settings: purified proteasome, plasma and white blood cell lysate; YU-101 0.4 μg/mL; substrate 200 μM
T2 construct: in samples of purified proteasome, plasma, and white blood cell lysate; from tissue; host or cells: purified proteasome; plasma; white blood cell lysate (normal individuals)
T2 sequence (P28072 1-239): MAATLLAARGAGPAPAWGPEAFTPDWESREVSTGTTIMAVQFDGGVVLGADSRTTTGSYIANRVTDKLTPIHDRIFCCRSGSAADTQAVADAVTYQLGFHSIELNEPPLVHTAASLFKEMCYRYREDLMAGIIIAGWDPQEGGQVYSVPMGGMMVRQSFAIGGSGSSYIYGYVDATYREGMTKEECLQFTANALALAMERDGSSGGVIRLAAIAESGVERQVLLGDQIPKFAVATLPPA
Procedure: as §2

[6] = molecular target: T3, Pure human 20S proteasome (Homo sapiens, UniProt P28074); experiment: Specificity of proteasomal enzymatic assay: Ch-L activity of purified 20S proteasome; format: biochemical; settings: Suc-LLVY-AMC
T3 construct: purchased Biomol International PW8720-0050

[7] = system: proteasome Ch-L activity in plasma from an AML patient; experiment: Dose response of Ch-L activity in plasma from an AML patient; format: biochemical, human; settings: for % Inhibition / Activity: AML patient plasma
Procedure: as §1
A dose response study was conducted to determine the effect of concentration of YU-101 on Ch-L activity as assayed in plasma from an AML patient. YU-101 (200 ng/μL) was serially diluted 1:4 in HEPES buffer to produce solutions having concentrations of 0.78, 3.125, 12.5, 50, and 200 ng/μL for dose response experiments. 70 μL of plasma from an AML patient was combined with 1 μL inhibitor solution and incubated at room temperature for 15 minutes. Ch-L activity was determined as in Example 1.

T1 sequence (P17538 34-164 limits assumed, other chains not shown): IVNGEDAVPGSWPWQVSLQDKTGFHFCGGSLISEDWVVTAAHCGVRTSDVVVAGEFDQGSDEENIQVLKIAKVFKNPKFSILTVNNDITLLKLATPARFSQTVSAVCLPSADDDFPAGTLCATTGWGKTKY
T1 sequence (P17538 167-263 limits assumed, other chains not shown): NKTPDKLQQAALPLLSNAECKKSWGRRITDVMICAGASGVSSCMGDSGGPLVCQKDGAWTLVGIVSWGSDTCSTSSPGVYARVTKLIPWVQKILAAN

Molecule: CC(=O)NC(CCc1ccccc1)C(=O)NC(CC(C)C)C(=O)NC(Cc1ccccc1)C(=O)NC(CC(C)C)C(=O)C1(C)CO1 (centres unmarked) [YU-101]
- inhibition of Ch-L activity, dose dependence ([1]; whole blood cell lysate from a normal individual): dose-dependent
- % Inhibition ([1]; approx. YU-101 0.0125 ng/μL): 3.2%
- Activity ([1]; approx. YU-101 0.0125 ng/μL): 92002
- % Inhibition ([1]; approx. YU-101 0.025 ng/μL): 24.0%
- Activity ([1]; approx. YU-101 0.025 ng/μL): 72252
- % Inhibition ([1]; approx. YU-101 0.05 ng/μL): 38.4%
- Activity ([1]; approx. YU-101 0.05 ng/μL): 58544
- % Inhibition ([1]; approx. YU-101 0.1 ng/μL): 82.0%
- Activity ([1]; approx. YU-101 0.1 ng/μL): 17070
- % Inhibition ([1]; approx. YU-101 0.2 ng/μL): 92.6%
- Activity ([1]; approx. YU-101 0.2 ng/μL): 7024
- inhibition of trypsin-L activity [2]: weaker inhibitor
- Vmax Ch-L (fluorescence) ([3]; pancreatic α-chymotrypsin + YU-101, final 4 ng/μL): No activity
- inhibition of chymotrypsin-L activity [4]: strong inhibitor
- inhibition of caspase-L activity [5]: weaker inhibitor
- Vmax Ch-L (fluorescence) ([6]; purified 20S proteasome + YU-101, final 4 ng/μL): No activity
- % Inhibition ([7]; approx. YU-101 0.00156 ng/μL): 0.00%
- Activity ([7]; approx. YU-101 0.00156 ng/μL): 233781
- % Inhibition ([7]; approx. YU-101 0.00625 ng/μL): 8.98%
- Activity ([7]; approx. YU-101 0.00625 ng/μL): 212786
- % Inhibition ([7]; approx. YU-101 0.025 ng/μL): 38.41%
- Activity ([7]; approx. YU-101 0.025 ng/μL): 143991
- % Inhibition ([7]; approx. YU-101 0.1 ng/μL): 62.54%
- Activity ([7]; approx. YU-101 0.1 ng/μL): 87573
- % Inhibition ([7]; approx. YU-101 0.4 ng/μL): 69.56%
- Activity ([7]; approx. YU-101 0.4 ng/μL): 71162
- inhibition of Ch-L activity, dose dependence ([7]; plasma of an AML patient): dose-dependent

B1: α1-anti-chymotrypsin: pancreatic chymotrypsin inhibitor (Sigma, catalog #A9285) (protein, UniProt P01011 24-423, looked up)
Alpha-1-antichymotrypsin: HPNSPLDEENLTQENQDRGTHVDLGLASANVDFAFSLYKQLVLKAPDKNVIFSPLSISTALAFLSLGAHNTTLTEILKGLKFNLTETSEAEIHQSFQHLLRTLNQSSDELQLSMGNAMFVKEQLSLLDRFTEDAKRLYGSEAFATDFQDSAAAKKLINDYVKNGTRGKITDLIKDLDSQTMMVLVNYIFFKAKWEMPFDPQDTHQSRFYLSKKKWVMVPMMSLHHLTIPYFRDEELSCTVVELKYTGNASALFILPDQDKMEEVEAMLLPETLKRWRDSLEFREIGELYLPKFSISRDYNLNDILLQLGIEEAFTSKADLSGITGARNLAVSQVVHKAVLDVFEEGTEASAATAVKITLLSALVETRTIVRFNRPFLMIIVPTDTQNIFFMSKVTNPKQA
- Vmax Ch-L (fluorescence) ([3]; pancreatic α-chymotrypsin + α1-anti-chymotrypsin, final 40 ng/μL): No activity
- Vmax Ch-L (fluorescence) ([6]; purified 20S proteasome + α1-anti-chymotrypsin, final 40 ng/μL): 121,813
